# Source: BindingDB's records for PubMed 10347254 (R. W. Johnson Pharmaceutical Research Institute, 1999)
# Target: Histamine H3 receptor (Homo sapiens, UniProt Q9Y5N1)
# Sequence (Q9Y5N1 whole entry): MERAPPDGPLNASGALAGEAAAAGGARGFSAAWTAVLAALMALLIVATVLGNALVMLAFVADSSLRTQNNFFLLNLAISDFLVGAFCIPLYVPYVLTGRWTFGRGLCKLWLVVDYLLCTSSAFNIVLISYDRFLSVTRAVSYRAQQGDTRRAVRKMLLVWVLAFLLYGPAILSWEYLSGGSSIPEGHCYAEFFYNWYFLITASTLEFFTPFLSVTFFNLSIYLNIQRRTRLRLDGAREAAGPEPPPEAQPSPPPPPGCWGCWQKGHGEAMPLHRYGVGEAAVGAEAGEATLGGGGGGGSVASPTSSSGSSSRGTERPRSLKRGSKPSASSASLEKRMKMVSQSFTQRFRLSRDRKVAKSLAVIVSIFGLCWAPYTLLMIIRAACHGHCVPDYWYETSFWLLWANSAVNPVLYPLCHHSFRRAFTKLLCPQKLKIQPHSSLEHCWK
row,Ki [µM],SMILES
1,> 10,COc1ccc(CN(CCN(C)C)c2ccccn2)cc1
2,> 10,CN/C([CH-][N+](=O)[O-])=[NH+]\CCSCc1ccc(CN(C)C)o1
3,> 10,N=C(N)SCCc1cnc[nH]1 [2-(3H-imidazol-4-yl)ethylsulfanylmethanimidamide]
4,> 10,c1nc(CC2CCNCC2)c[nH]1 [4-(1H-imidazol-4-ylmethyl)piperidine]

row,SMILES,Ki [µM]
1,c1c[nH]cn1,> 10
2,CNCCc1c[nH]cn1 [N(alpha)-Methylhistamine],> 10
